Experimental data from PubChem BioAssay AID248 (DTP/NCI, 2004).
“And” between values parts separate entries of the source, which are not always exact repeats. Equal values may be shown once. Inconclusive results and toxic doses are left out.

Test system: L1210 leukemia ip in BDF1 mice, survival T/C
Assay: NCI In Vivo Anticancer Drug Screen. Data for tumor model L1210 Leukemia (intraperitoneal) in B6D2F1 (BDF1) mice
Settings: endpoint: mean survival time, higher = longer survival
Summary of the method: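 In this screen, tumor-bearing mice given compound are compared to those given vehicle, and their survival values are reported as a treated-to-control quotient.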

[1] = dose: 100.0 mg/kg/injection, schedule: Q04DX003 (ip), vehicle: saline
[2] = dose: 100.0 mg/kg/injection, schedule: Q01DX001 (ip), vehicle: Klucel (hydroxypropylcellulose) (HPC)
[3] = dose: 200.0 mg/kg/injection, schedule: Q01DX001 (ip), vehicle: Klucel (hydroxypropylcellulose) (HPC)
[4] = dose: 400.0 mg/kg/injection, schedule: Q01DX001 (ip), vehicle: Klucel (hydroxypropylcellulose) (HPC)
[5] = dose: 100.0 mg/kg/injection, schedule: Q04DX003 (ip), vehicle: saline with Tween-80
[6] = dose: 200.0 mg/kg/injection, schedule: Q04DX003 (ip), vehicle: saline with Tween-80
[7] = dose: 100.0 mg/kg/injection, schedule: Q04DX003 (ip), vehicle: Klucel (hydroxypropylcellulose) (HPC)
[8] = dose: 200.0 mg/kg/injection, schedule: Q04DX003 (ip), vehicle: Klucel (hydroxypropylcellulose) (HPC)
[9] = dose: 100.0 mg/kg/injection, schedule: Q01DX009 (ip), vehicle: saline with Tween-80
[10] = dose: 200.0 mg/kg/injection, schedule: Q01DX009 (ip), vehicle: saline with Tween-80

CCCCCCCOCc1ccccc1
T/C [1]: 111 % of control | T/C (dose: 200.0 mg/kg/injection, schedule: Q04DX003 (ip), vehicle: acetone): 94 % of control | T/C (dose: 300.0 mg/kg/injection, schedule: Q04DX003 (ip), vehicle: acetone): 96 % of control | T/C (dose: 400.0 mg/kg/injection, schedule: Q04DX003 (ip), vehicle: saline): 97 % of control

O=C(COc1ccc(Cl)cc1C(=O)O)NCc1ccc(NC(=O)Nc2ccc(S(=O)(=O)F)cc2Cl)cc1
T/C [2]: 102 % of control | T/C [3]: 93 % of control | T/C [4]: 89 % of control

CC(=O)N1CCC(CC(O)Cc2ccnc3ccccc23)CC1 (centres undefined)
T/C [1]: 97 % of control | T/C (dose: 200.0 mg/kg/injection, schedule: Q04DX003 (ip), vehicle: saline): 97 % of control

O=C(NCCCl)NC1CCCCC1
T/C [2]: 88 % of control | T/C [3]: 89 % of control | T/C [4]: 100 % of control

Cc1ccc(CO)cc1C
T/C (dose: 50.0 mg/kg/injection, schedule: Q04DX003 (ip), vehicle: saline with Tween-80): 95 % of control | T/C [5]: 104 % of control | T/C [6]: 93 % of control

CC(C)=NNC(N)=O
T/C (dose: 12.5 mg/kg/injection, schedule: Q01DX009 (ip), vehicle: saline): 97 % of control | T/C (dose: 25.0 mg/kg/injection, schedule: Q01DX009 (ip), vehicle: saline): 100 % of control | T/C (dose: 25.0 mg/kg/injection, schedule: Q04DX002 (ip), vehicle: saline): 98 % of control | T/C (dose: 50.0 mg/kg/injection, schedule: Q01DX009 (ip), vehicle: saline): 94 % of control | T/C (dose: 50.0 mg/kg/injection, schedule: Q04DX002 (ip), vehicle: saline): 103 % of control

COc1cc(C=Nc2ccc(-c3csc(COc4ccccc4)n3)cc2)ccc1N(CCCl)CCCl
T/C (dose: 3.7 mg/kg/injection, schedule: Q01DX015 (ip), vehicle: carboxymethylcellulose (CMC)): 116 % of control | T/C (dose: 6.2 mg/kg/injection, schedule: Q01DX015 (ip), vehicle: carboxymethylcellulose (CMC)): 117 % of control | T/C (dose: 9.3 mg/kg/injection, schedule: Q01DX015 (ip), vehicle: carboxymethylcellulose (CMC)): 119 % of control | T/C (dose: 10.0 mg/kg/injection, schedule: Q01DX001 (ip), vehicle: carboxymethylcellulose (CMC)): 121 % of control | T/C (dose: 15.0 mg/kg/injection, schedule: Q01DX015 (ip), vehicle: carboxymethylcellulose (CMC)): 124 % of control | T/C (dose: 20.0 mg/kg/injection, schedule: Q01DX001 (ip), vehicle: carboxymethylcellulose (CMC)): 123 % of control | T/C (dose: 40.0 mg/kg/injection, schedule: Q01DX001 (ip), vehicle: carboxymethylcellulose (CMC)): 156 % of control | T/C (dose: 50.0 mg/kg/injection, schedule: Q01DX001 (ip), vehicle: carboxymethylcellulose (CMC)): 107 % of control | T/C (dose: 50.0 mg/kg/injection, schedule: Q01DX015 (ip), vehicle: carboxymethylcellulose (CMC)): 96 % of control and 104 % of control and 92 % of control | T/C (dose: 66.6 mg/kg/injection, schedule: Q01DX001 (ip), vehicle: carboxymethylcellulose (CMC)): 164 % of control | T/C (dose: 100.0 mg/kg/injection, schedule: Q01DX001 (ip), vehicle: carboxymethylcellulose (CMC)): 156 % of control | T/C (dose: 200.0 mg/kg/injection, schedule: Q01DX001 (ip), vehicle: carboxymethylcellulose (CMC)): 104 % of control

c1ccc(CNc2ccccc2)cc1
T/C (dose: 100.0 mg/kg/injection, schedule: Q01DX009 (sc), vehicle: olive oil, sesame oil, peanut oil): 95 % of control | T/C (dose: 100.0 mg/kg/injection, schedule: Q04DX003 (sc), vehicle: olive oil, sesame oil, peanut oil): 94 % of control | T/C (dose: 200.0 mg/kg/injection, schedule: Q01DX009 (sc), vehicle: olive oil, sesame oil, peanut oil): 92 % of control | T/C (dose: 200.0 mg/kg/injection, schedule: Q04DX003 (sc), vehicle: olive oil, sesame oil, peanut oil): 102 % of control | T/C (dose: 400.0 mg/kg/injection, schedule: Q01DX009 (sc), vehicle: olive oil, sesame oil, peanut oil): 100 % of control | T/C (dose: 400.0 mg/kg/injection, schedule: Q04DX003 (sc), vehicle: olive oil, sesame oil, peanut oil): 105 % of control

O=[As](O)(O)Cc1ccc(F)cc1
T/C (dose: 6.25 mg/kg/injection, schedule: Q01DX009 (ip), vehicle: Klucel (hydroxypropylcellulose) (HPC)): 96 % of control | T/C (dose: 12.5 mg/kg/injection, schedule: Q01DX009 (ip), vehicle: Klucel (hydroxypropylcellulose) (HPC)): 105 % of control | T/C (dose: 25.0 mg/kg/injection, schedule: Q01DX009 (ip), vehicle: Klucel (hydroxypropylcellulose) (HPC)): 108 % of control

CCCOc1ccc(Nc2c3ccccc3nc3ccccc23)cc1
T/C [7]: 102 % of control | T/C [8]: 96 % of control

CN(C)c1ccc(C=O)c(Br)c1
T/C (dose: 100.0 mg/kg/injection, schedule: Q01DX009 (ip), vehicle: Klucel (hydroxypropylcellulose) (HPC)): 96 % of control | T/C [7]: 96 % of control | T/C (dose: 200.0 mg/kg/injection, schedule: Q01DX009 (ip), vehicle: Klucel (hydroxypropylcellulose) (HPC)): 91 % of control | T/C [8]: 111 % of control | T/C (dose: 400.0 mg/kg/injection, schedule: Q01DX009 (ip), vehicle: Klucel (hydroxypropylcellulose) (HPC)): 103 % of control | T/C (dose: 400.0 mg/kg/injection, schedule: Q04DX003 (ip), vehicle: Klucel (hydroxypropylcellulose) (HPC)): 100 % of control

CC[N+](C)(CC)CCCNC(=O)C(c1ccccc1)c1ccccc1
T/C [5]: 100 % of control

CCCn1ncc(=O)[nH]c1=O
T/C (dose: 50.0 mg/kg/injection, schedule: Q01DX009 (ip), vehicle: saline with Tween-80): 96 % of control | T/C [9]: 112 % of control | T/C [10]: 103 % of control

CCOC(=O)Nc1cc(NCC(O)CN(C)C)c([N+](=O)[O-])c(N)n1 (centres undefined)
T/C (dose: 100.0 mg/kg/injection, schedule: Q01DX001 (ip), vehicle: saline with Tween-80): 103 % of control | T/C (dose: 200.0 mg/kg/injection, schedule: Q01DX001 (ip), vehicle: saline with Tween-80): 94 % of control | T/C (dose: 400.0 mg/kg/injection, schedule: Q01DX001 (ip), vehicle: saline with Tween-80): 101 % of control

Cc1ccc(/C=N\N=C(\N)N/N=C/c2ccc(C)cc2)cc1
T/C (dose: 15.0 mg/kg/injection, schedule: Q01DX Z (ip), vehicle: carboxymethylcellulose (CMC)): 95 % of control | T/C (dose: 30.0 mg/kg/injection, schedule: Q01DX Z (ip), vehicle: carboxymethylcellulose (CMC)): 93 % of control | T/C (dose: 60.0 mg/kg/injection, schedule: Q01DX Z (ip), vehicle: carboxymethylcellulose (CMC)): 87 % of control | T/C (dose: 120.0 mg/kg/injection, schedule: Q01DX Z (ip), vehicle: carboxymethylcellulose (CMC)): 96 % of control | T/C (dose: 120.0 mg/kg/injection, schedule: Q01DX Z (oral), vehicle: carboxymethylcellulose (CMC)): 101 % of control | T/C (dose: 240.0 mg/kg/injection, schedule: Q01DX Z (oral), vehicle: carboxymethylcellulose (CMC)): 101 % of control | T/C (dose: 480.0 mg/kg/injection, schedule: Q01DX Z (oral), vehicle: carboxymethylcellulose (CMC)): 96 % of control | T/C (dose: 960.0 mg/kg/injection, schedule: Q01DX Z (oral), vehicle: carboxymethylcellulose (CMC)): 101 % of control

CN(C)/N=N/c1nc[nH]c1C#N
T/C [9]: 107 % of control | T/C [5]: 110 % of control | T/C [10]: 115 % of control | T/C [6]: 98 % of control | T/C (dose: 400.0 mg/kg/injection, schedule: Q04DX003 (ip), vehicle: saline with Tween-80): 102 % of control
